Data: PubChem BioAssay (NCI)
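GI50 = concentration required for 50% inhibition of growth. TGI is the concentration that stops growth completely.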

Experiments:
Assay in all cases: growth of human tumour cells (NCI), 384-well format
[1] = test system: CAKI-1 renal
[2] = test system: NCI-H522 lung
[3] = test system: SF-539 CNS
[4] = test system: MDA-MB-231 breast
[5] = test system: MOLT-4 leukemia
[6] = test system: HCT-116 colon
[7] = test system: EKVX NSCLC
[8] = test system: OVCAR-8 ovarian
[9] = test system: M14 melanoma
[10] = test system: OVCAR-3 ovarian
[11] = test system: U251 glioblastoma
[12] = test system: MALME-3M melanoma
[13] = test system: SK-MEL-5 melanoma
[14] = test system: UACC-257 melanoma
[15] = test system: SNB-75 CNS
[16] = test system: PC-3 prostate
[17] = test system: 786-0 renal
[18] = test system: A498 renal
[19] = test system: HOP-92 NSCLC
[20] = test system: A549 NSCLC
[21] = test system: NCI-H322M lung
[22] = test system: RPMI-8226 leukemia
[23] = test system: SNB-19 CNS
[24] = test system: NCI-H226 lung
[25] = test system: IGROV1 ovarian
[26] = test system: RXF 393 renal
[27] = test system: SK-OV-3 ovarian
[28] = test system: TK-10 renal
[29] = test system: OVCAR-5 ovarian
[30] = test system: UO-31 renal
[31] = test system: HCC-2998 colon
[32] = test system: HS 578T breast
[33] = test system: CCRF-CEM leukemia
[34] = test system: HT29 colon
[35] = test system: T-47D breast
[36] = test system: SN12C renal
[37] = test system: OVCAR-4 ovarian
[38] = test system: SW-620 colon
[39] = test system: SF-268 CNS
[40] = test system: ACHN renal
[41] = test system: SR leukemia
[42] = test system: MDA-MB-468 breast
[43] = test system: LOX IMVI melanoma
[44] = test system: NCI-H23 lung
[45] = test system: NCI/ADR-RES ovarian
[46] = test system: HOP-62 NSCLC
[47] = test system: MDA-MB-435 melanoma
[48] = test system: HCT-15 colon
[49] = test system: COLO 205 colon
[50] = test system: SK-MEL-28 melanoma
[51] = test system: BT-549 breast
[52] = test system: KM12 colon
[53] = test system: NCI-H460 NSCLC
[54] = test system: DU-145 prostate
[55] = test system: MCF7 breast
[56] = test system: HL-60(TB) leukemia
[57] = test system: UACC-62 melanoma
[58] = test system: SF-295 CNS

Q: How did the GI50 [1] turn out when `CN1CCN(c2ccc(Nc3ncc4cc5n(c4n3)C3(CCCCC3)CNC5=O)nc2)CC1` was run?
A: 1210 nM

Q: And the TGI [1]?
A: > 40.5 µM

Q: What about the GI50 [2] of the same compound?
A: 7.65 µM

Q: And the TGI [2]?
A: 18.9 µM

Q: What about the GI50 [3] of the same compound?
A: 1750 nM

Q: And the TGI [3]?
A: 3.44 µM

Q: And the GI50 [4]?
A: 796 nM

Q: What about the TGI [4] of the same compound?
A: 3.23 µM

Q: And the GI50 [5]?
A: 116 nM

Q: What about the TGI [5] of the same compound?
A: 931 nM

Q: What about the GI50 [6] of the same compound?
A: 1410 nM

Q: And the TGI [6]?
A: 5.38 µM

Q: And the GI50 [7]?
A: 3.11 µM

Q: And the TGI [7]?
A: 11 µM

Q: And the GI50 [8]?
A: 3.57 µM

Q: What about the TGI [8] of the same compound?
A: 10.5 µM

Q: And the GI50 [9]?
A: 1480 nM

Q: What about the TGI [9] of the same compound?
A: 4.85 µM

Q: What about the GI50 [10] of the same compound?
A: 3.05 µM

Q: And the TGI [10]?
A: 7.81 µM

Q: What about the GI50 [11] of the same compound?
A: 3.14 µM

Q: And the TGI [11]?
A: 15.2 µM

Q: What about the GI50 [12] of the same compound?
A: 1450 nM

Q: And the TGI [12]?
A: 4.22 µM

Q: What about the GI50 [13] of the same compound?
A: 2390 nM

Q: What about the TGI [13] of the same compound?
A: 12.7 µM

Q: What about the GI50 [14] of the same compound?
A: 5.59 µM

Q: What about the TGI [14] of the same compound?
A: 17.4 µM

Q: And the GI50 [15]?
A: 1890 nM

Q: What about the TGI [15] of the same compound?
A: 4.35 µM

Q: What about the GI50 [16] of the same compound?
A: 2710 nM

Q: And the TGI [16]?
A: > 39 µM

Q: What about the GI50 [17] of the same compound?
A: 2340 nM

Q: And the TGI [17]?
A: > 100 µM

Q: What about the GI50 [18] of the same compound?
A: 3.03 µM

Q: What about the TGI [18] of the same compound?
A: 14.5 µM

Q: And the GI50 [19]?
A: 2280 nM

Q: And the TGI [19]?
A: > 24.2 µM

Q: What about the GI50 [20] of the same compound?
A: 1650 nM

Q: What about the TGI [20] of the same compound?
A: 9.44 µM

Q: What about the GI50 [21] of the same compound?
A: 2170 nM

Q: And the TGI [21]?
A: 7.5 µM

Q: What about the GI50 [22] of the same compound?
A: 245 nM

Q: What about the TGI [22] of the same compound?
A: 1500 nM

Q: And the GI50 [23]?
A: 3.99 µM

Q: And the TGI [23]?
A: > 52.6 µM

Q: And the GI50 [24]?
A: 362 nM

Q: And the TGI [24]?
A: 4.23 µM

Q: And the GI50 [25]?
A: 4.12 µM

Q: And the TGI [25]?
A: > 100 µM

Q: What about the GI50 [26] of the same compound?
A: 2150 nM

Q: What about the TGI [26] of the same compound?
A: 4.02 µM

Q: And the GI50 [27]?
A: 5.23 µM

Q: What about the TGI [27] of the same compound?
A: > 42.6 µM

Q: What about the GI50 [28] of the same compound?
A: 2940 nM

Q: And the TGI [28]?
A: 15.3 µM

Q: What about the GI50 [29] of the same compound?
A: 2040 nM

Q: What about the TGI [29] of the same compound?
A: > 100 µM

Q: What about the GI50 [30] of the same compound?
A: 1360 nM

Q: And the TGI [30]?
A: > 23.3 µM

Q: What about the GI50 [31] of the same compound?
A: 2350 nM

Q: And the TGI [31]?
A: 5.48 µM

Q: What about the GI50 [32] of the same compound?
A: 2090 nM

Q: And the TGI [32]?
A: 4.09 µM

Q: And the GI50 [33]?
A: 399 nM

Q: What about the TGI [33] of the same compound?
A: 1810 nM

Q: What about the GI50 [34] of the same compound?
A: 1460 nM

Q: What about the TGI [34] of the same compound?
A: 12.1 µM

Q: What about the GI50 [35] of the same compound?
A: 7.74 µM

Q: And the TGI [35]?
A: 23.3 µM

Q: And the GI50 [36]?
A: 1830 nM

Q: And the TGI [36]?
A: 7.87 µM

Q: And the GI50 [37]?
A: 5.31 µM

Q: What about the TGI [37] of the same compound?
A: 14.6 µM

Q: And the GI50 [38]?
A: 1090 nM

Q: And the TGI [38]?
A: 10.2 µM

Q: What about the GI50 [39] of the same compound?
A: 1810 nM

Q: What about the TGI [39] of the same compound?
A: 4.14 µM

Q: What about the GI50 [40] of the same compound?
A: 1630 nM

Q: And the TGI [40]?
A: > 100 µM

Q: And the GI50 [41]?
A: 40.8 nM

Q: And the TGI [41]?
A: 196 nM

Q: What about the GI50 [42] of the same compound?
A: 4.26 µM

Q: What about the TGI [42] of the same compound?
A: 10.8 µM

Q: And the GI50 [43]?
A: 993 nM

Q: What about the TGI [43] of the same compound?
A: 3.02 µM

Q: What about the GI50 [44] of the same compound?
A: 1810 nM

Q: And the TGI [44]?
A: 3.83 µM

Q: What about the GI50 [45] of the same compound?
A: 8.49 µM

Q: And the TGI [45]?
A: 23.8 µM

Q: And the GI50 [46]?
A: 1990 nM

Q: And the TGI [46]?
A: 6.75 µM

Q: What about the GI50 [47] of the same compound?
A: 4.34 µM

Q: What about the TGI [47] of the same compound?
A: 24.8 µM

Q: What about the GI50 [48] of the same compound?
A: 2140 nM

Q: And the TGI [48]?
A: 9.25 µM

Q: What about the GI50 [49] of the same compound?
A: 844 nM

Q: What about the TGI [49] of the same compound?
A: 5.67 µM

Q: What about the GI50 [50] of the same compound?
A: 2470 nM

Q: What about the TGI [50] of the same compound?
A: 14.5 µM

Q: And the GI50 [51]?
A: 2000 nM

Q: What about the TGI [51] of the same compound?
A: 3.9 µM

Q: What about the GI50 [52] of the same compound?
A: 1340 nM

Q: What about the TGI [52] of the same compound?
A: 14.3 µM

Q: And the GI50 [53]?
A: 1330 nM

Q: What about the TGI [53] of the same compound?
A: 3.74 µM

Q: And the GI50 [54]?
A: 3.22 µM

Q: And the TGI [54]?
A: 9.41 µM

Q: What about the GI50 [55] of the same compound?
A: 1390 nM

Q: What about the TGI [55] of the same compound?
A: 9.19 µM

Q: What about the GI50 [56] of the same compound?
A: 139 nM

Q: What about the TGI [56] of the same compound?
A: 1770 nM

Q: What about the GI50 [57] of the same compound?
A: 1690 nM

Q: And the TGI [57]?
A: 7.78 µM

Q: And the GI50 [58]?
A: 1750 nM

Q: And the TGI [58]?
A: 7.59 µM
